# Structures can show the parent of a compound that is named as a salt. Where two headings read alike, the source gives them in different places.
# Test system: Acinetobacter baumannii ATCC17978
# Experiment: Antimicrobial susceptibility testing: 90% growth inhibitory concentration (IC90) determination, Iso-Sensitest broth
# Type: cell-based
# In short: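 A. baumannii ATCC17978 grown in Iso-Sensitest broth across 10 compound concentrations at 35±2 °C.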
# [1] = 90% growth inhibitory concentration, Acinetobacter baumannii ATCC17978, Iso-Sensitest broth, OD 600 nm over 16 h, read-out: ATCC17978 IC90
# [2] = Acinetobacter baumannii, ATCC17978, 16 h, read-out: ATCC17978 IC90, 90% growth inhibitory concentration, Acinetobacter baumannii ATCC17978, Iso-Sensitest broth, OD 600 nm over 16 h
IC90 [1],SMILES,IC90 [2],also measured
180 nM,"COc1ccc(-c2cnc3c(Nc4ccc(C(=O)N5CCC(C(=O)N6C[C@H](CO)[C@@H](O)[C@H](O)C6)CC5)c(C)c4)nccn23)c(F)c1F [Example 296, [4-[[3-(2,3-difluoro-4-methoxyphenyl)imidazo[1,2-a]pyrazin-8-yl]amino]-2-methylphenyl]-[4-[(3R,4R,5R)-3,4-dihydroxy-5-(hydroxymethyl)piperidine-1-carbonyl]piperidin-1-yl]methanone]",–,–
250 nM,"COc1ccc(-c2cnc3c(Nc4ccc(C(=O)N5CCN(CCN(C)C)CC5)c(C)c4)nccn23)cc1F [Example 35, (4-(2-(dimethylamino)ethyl)piperazin-1-yl)(4-((3-(3-fluoro-4-methoxyphenyl)imidazo[1,2-a]pyrazin-8-yl)amino)-2-methylphenyl)methanone]",–,–
–,"Cc1cc(Nc2nccn3c(-c4ccc(OC(F)F)cc4)cnc23)ccc1C(=O)N1CCN(C(=O)C2CCNCC2F)CC1 (stereo not shown) [Example 502, [4-[[3-[4-(difluoromethoxy)phenyl]imi-dazo[1,2-a]pyrazin-8-yl]amino]-2-methylphenyl]-[4-(3-fluoropiperidine-4-carbonyl)piperazin-1-yl]methanone; hydrochloride]",470 nM,–
1000 nM,"COc1ccc(-c2cnc3c(Nc4ccc(C(=O)N5CCC(C(=O)NCCn6ccnc6)CC5)c(C)c4)nccn23)cc1F [Example 418, 1-[4-[[3-(3-fluoro-4-methoxyphenyl)imidazo[1,2-a]pyrazin-8-yl]amino]-2-methylbenzoyl]-N-(2-imidazol-1-ylethyl)piperidine-4-carboxamide]",–,–
290 nM,"COc1ccc(-c2cnc3c(Nc4ccc(C(=O)N5CCN(C(=O)[C@@H]6CCNC[C@H]6O)CC5)c(C)c4)nccn23)c(F)c1F [Example 193, [4-[[3-(2,3-difluoro-4-methoxy-phenyl)imidazo[1,2-a]pyrazin-8-yl]amino]-2-methyl-phenyl]-[4-[(3S,4R)-3-hydroxypiperidine-4-carbonyl]piperazin-1-yl]methanone hydrochloride]",–,–
4100 nM,"Cc1cc(Nc2nccn3c(-c4cc(F)c(F)c(F)c4)cnc23)ccc1C(=O)N1CCC(CN)CC1 [Example 111, (4-(aminomethyl)piperidin-1-yl)(2-methyl-4-((3-(3,4,5-trifluorophenyl)imidazo[1,2-a]pyrazin-8-yl)amino)phenyl)methanone]",–,–
760 nM,"Cc1cc(Nc2nccn3c(-c4ccc(Oc5ccncc5)c(F)c4F)cnc23)ccc1C(=O)N1CCC(CN)CC1 [Example 123, [4-(aminomethyl)-1-piperidyl]-[4-[[3-[2,3-difluoro-4-(4-pyridyloxy)phenyl]imidazo[1,2-a]pyrazin-8-yl]amino]-2-methyl-phenyl]methanone]",–,–
–,"COc1ccc(-c2cnc3c(Nc4ccc(C(=O)N5CCC(C(=O)NCCCN)CC5)c(C)c4)nccn23)cc1F [Example 52, N-(3-aminopropyl)-1-(4-((3-(3-fluoro-4-methoxyphenyl)imidazo[1,2-a]pyrazin-8-yl)amino)-2-methylbenzoyl)piperidine-4-carboxamide hydrochloride]",230 nM,–
190 nM,Cc1cc(Nc2nccn3c(-c4ccc(OC(F)F)cc4)cnc23)ccc1C(=O)N1CCC(C(=O)NCC2CNC2)CC1 [Example 68],–,–
130 nM,"CCc1cc(Nc2nccn3c(-c4ccc(OCC#N)c(F)c4F)cnc23)ccc1C(=O)N1CCN(CCN(C)C)CC1 [Example 30, 2-(4-(8-((4-(4-(2-(dimethylamino)ethyl)piperazine-1-carbonyl)-3-ethylphenyl)amino)imidazo[1,2-a]pyrazin-3-yl)-2,3-difluorophenoxy)acetonitrile]",–,–
260 nM,"COc1ccc(-c2cnc3c(Nc4ccc(C(=O)N5CCC(C(=O)N6CCOC(CN)C6)CC5)c(C)c4)nccn23)cc1F (stereo not shown) [Example 39, (4-(2-(aminomethyl)morpholine-4-carbonyl)piperidin-1-yl)(4-((3-(3-fluoro-4-methoxyphenyl)imidazo[1,2-a]pyrazin-8-yl)amino)-2-methylphenyl)methanone hydrochloride]",–,–
89 nM,"Cc1cc(Nc2nccn3c(-c4ccc(OCC#N)c(F)c4F)cnc23)ccc1C(=O)N1CCC(C(=O)N2CCNC(CO)C2)CC1 (stereo not shown) [Example 95, 2-[2,3-difluoro-4-[8-[4-[4-[3-(hydroxymethyl)piperazine-1-carbonyl]piperidine-1-carbonyl]-3-methyl-anilino]imidazo[1,2-a]pyrazin-3-yl]phenoxy]acetonitrile;2,2,2-trifluoroacetic acid]",–,–
720 nM,"COc1ccc(-c2cnc3c(Nc4ccc(C(=O)N5CCN(CCOCCO)CC5)c(C)c4)nccn23)cc1F [Example 411, [4-[[3-(3-fluoro-4-methoxyphenyl)imidazo[1,2-a]pyrazin-8-yl]amino]-2-methylphenyl]-[4-[2-(2-hydroxyethoxy)ethyl]pipera-zin-1-yl]methanone]",–,–
88 nM,"Cc1cc(Nc2nccn3c(-c4ccc(OCC#N)c(F)c4Cl)cnc23)ccc1C(=O)N1CCC(C(=O)OC[C@H]2CNCCN2)CC1 [Example 469, [(2R)-piperazin-2-yl]methyl 1-[4-[[3-[2-chloro-4-(cyanomethoxy)-3-fluorophenyl]imidazo[1,2-a]pyrazin-8-yl]amino]-2-methylbenzoyl]piperidine-4-carboxylate]",–,–
–,"Cc1cc(Nc2nccn3c(-c4ccc(OC(F)F)cc4)cnc23)ccc1C(=O)N1CCC(N)CC1 [Example 361, (4-aminopiperidin-1-yl)-[4-[[3-[4-(difluoromethoxy)phenyl]imi-dazo[1,2-a]pyrazin-8-yl]amino]-2-methylphenyl]methanone; hy-drochloride]",450 nM,–
–,"Cc1cc(Nc2nccn3c(-c4ccc(OC(F)F)cc4)cnc23)ccc1C(=O)N1CCC(C(=O)N(C)C[C@H](O)[C@@H](O)[C@@H](O)[C@H](O)CO)CC1 [Example 268, 1-[4-[[3-[4-(difluoromethoxy)phenyl]imi-dazo[1,2-a]pyrazin-8-yl]amino]-2-methylbenzoyl]-N-methyl-N-[(2S,3R,4S,5R)-2,3,4,5,6-pentahydroxyhexyl]piperidine-4-carboxamide]",1500 nM,–
–,"Cc1cc(Nc2nccn3c(-c4ccc(O[C@H](C)C#N)c(F)c4F)cnc23)ccc1C(=O)N1CCN(C(=O)[C@@H]2C[C@](C)(O)CN2)CC1 [Example 567, (2R)-2-[2,3-difluoro-4-[8-[4-[4-[(2S,4S)-4-hydroxy-4-methyl-pyrrolidine-2-carbonyl]piperazine-1-carbonyl]-3-methyl-anilino]imidazo[1,2-a]pyrazin-3-yl]phenoxy]propanenitrile formate]",386 nM,–
–,"CNCCNC(=O)C1CCN(C(=O)c2ccc(Nc3nccn4c(-c5ccc(OC)c(F)c5F)cnc34)cc2C)CC1 [Example 321, 1-[4-[[3-(2,3-difluoro-4-methoxyphenyl)imidazo[1,2-a]pyrazin-8-yl]amino]-2-methylbenzoyl]-N-[2-(methylamino)ethyl]piperidine-4-carboxamide; hydrochloride]",280 nM,–
290 nM,"COc1ccc(-c2cnc3c(Nc4ccc(C(=O)N5CCN(C(=O)[C@H]6CCNC[C@H]6O)CC5)c(C)c4)nccn23)c(F)c1F (racemic) [Example 195, [4-[[3-(2,3-difluoro-4-methoxy-phenyl)imidazo[1,2-a]pyrazin-8-yl]amino]-2-methyl-phenyl]-[4-[rac-(3S,4S)-3-hydroxypiperidine-4-carbonyl]piperazin-1-yl]methanone]",–,–
–,"Cc1cc(Nc2nccn3c(-c4ccc(OC(F)F)cc4)cnc23)ccc1C(=O)N1CCC(C(=O)N2CCCNCC2)CC1 [Example 325, [4-(1,4-diazepane-1-carbonyl)piperidin-1-yl]-[4-[[3-[4-(difluoromethoxy)phenyl]imi-dazo[1,2-a]pyrazin-8-yl]amino]-2-methylphenyl]methanone; hy-drochloride]",340 nM,–
–,"Cc1cc(Nc2nccn3c(-c4ccc(OC(F)F)cc4)cnc23)ccc1C(=O)N1CCC(C(=O)NC[C@H](O)CN)CC1 [Example 553, (R)-N-(3-amino-2-hydroxypropyl)-1-(4-((3-(4-(difluoromethoxy)phenyl)imidazo [1,2-a]pyrazin-8-yl)amino)-2-methylbenzoyl)piperidine-4-carboxamide formate]",227 nM,–
–,"COc1ccc(-c2cnc3c(Nc4ccc(C(=O)N5CCC(CN)CC5)c(C(F)(F)F)c4)nccn23)cc1F [Example 394, [4-(aminomethyl)piperidin-1-yl]-[4-[[3-(3-fluoro-4-methoxyphenyl)imidazo[1,2-a]pyrazin-8-yl]amino]-2-(trifluoromethyl)phenyl]meth-anone; formic acid]",340 nM,–
3200 nM,"COc1ccc(-c2cnc3c(Nc4ccc(C(=O)N5CCC(CNCCC(=O)O)CC5)c(C)c4)nccn23)cc1 [Example 435, 3-[[1-[4-[[3-(4-methoxyphenyl)imidazo[1,2-a]pyrazin-8-yl]amino]-2-methylbenzoyl]piperidin-4-yl]methylamino]propanoic acid]",–,–
260 nM,"Cc1cc(Nc2nccn3c(-c4ccc(OC(F)F)cc4)cnc23)ccc1C(=O)N1CCN(C(=O)CCNC(=N)N)CC1 [Example 225, 1-(3-(4-(4-((3-(4-(difluoromethoxy)phenyl)imidazo[1,2-a]pyrazin-8-yl)amino)-2-methylbenzoyl)piperazin-1-yl)-3-oxopropyl)guanidine]",–,–
–,"Cc1cc(Nc2nccn3c(-c4ccc(OC(F)F)cc4)cnc23)ccc1C(=O)N1CCN(C(=O)C2(F)CCNCC2)CC1 [Example 487, [4-[[3-[4-(difluoromethoxy)phenyl]imi-dazo[1,2-a]pyrazin-8-yl]amino]-2-methylphenyl]-[4-(4-fluoropiperidine-4-carbonyl)piperazin-1-yl]methanone; hydrochloride]",–,"IC90 (read-out: ATCC17978 IC90, 90% growth inhibitory concentration, Acinetobacter baumannii ATCC17978, Iso-Sensitest broth, OD 600 nm over 16 h, hydrochloride): 220 nM"

# From US20230011869A1 (Hoffmann-La Roche Inc., priority 2018, published 2023)
